Results on one compound are retold here after patent EP4458916A1, “PHOTOCATALYTICALLY ACTIVE COATING COMPOSITION, METHOD FOR THE PRODUCTION THEREOF AND USE THEREOF” (priority 2023, dated 2024).

Experiment [1] deals with Bakterien. The experiment is described as follows: Durability: bacteria test (ISO 22196) after immersion in Incidin Plus (10% in water) or isopropanol (70% in water). Format: cell-based. To be noted: 4 h, Rezeptur 2 (Borsäure) on Melamin, 2 mM. An excerpt:
(§1) Die Bestimmung der antimikrobiellen Aktivität erfolgte nach einer modifizierten Version der ISO 22196:2011-08 ("Messung von antibakterieller Aktivität auf Kunststoff- und anderen porenfreien Oberflächen", Ausgabedatum: 2011-08).
(§2) Bei der Testdurchführung wurde ein dünner Flüssigkeitsfilm, in dem die Bakterien enthalten sind (1,25 x 10^4 /cm2), direkt auf die Probekörper (2,5 cm x 2,5 cm) aufgebracht. Direkt nach Beimpfung wurden von der Nullprobe die Bakterien von den Probekörperoberflächen mittels Ultraschall und Vortexen abgelöst und die Keimzahl (KBE (engl. CFU), Kolonie-bildende Einheit) bestimmt (t0-Wert). Ein weiterer Satz Nullproben und antimikrobiell ausgestatteter Proben wurden mit Bakterien im Flüssigkeitsfilm bei Raumtemperatur inkubiert. Nach 4 h wurden überlebende Bakterien von den Probekörperoberflächen mittels Ultraschall und Vortexen abgelöst und die Keimzahl bestimmt (t4-Wert).
(§3) Im Unterschied zu der in der ISO 22196:2011-08 beschriebenen Methode wurde das Inokulum nicht mit einer Folie abgedeckt und die Inkubationszeit von 24 auf 4 Stunden reduziert. Weiterhin wurden die Platten der Proben 3 und 4 mit Licht mit einer Intensität von 300 µW/cm2 belichtet.
Um die Haltbarkeit der Beschichtung bzw. das Auswaschen des Farbstoffs gegen gängige Reinigungs- und Desinfektionsmitteln, wurden damit Immersionstests in Incidin Plus (Ecolab GmbH, 10% in Wasser, Farbstoff S-25a) und Isopropanol (70% in Wasser) durchgeführt.
Der Bakterientest wurde in Anlehnung an ISO 22196 nach oben beschriebener Methode durchgeführt. Die Ergebnisse sind in den Tabellen 59 und 60 zusammengefasst. Tabelle 59: Mikrobiologische Wirksamkeit (Iog10 Reduktion) nach X h Immersion in Incidin Plus (10% in Wasser).

Experiment [2] relates to verschiedene Bakterienstämme. In words: Bacteria test following modified ISO 22196, photodynamic effect of a SolGel coating on different bacterial strains. Type of experiment: cell-based. To be noted: Rezeptur 5 coating on Melamin, 2 mM, 4 h.
Text: as §1, §2, §3
Die Ergebnisse sind Tabelle 53 dargestellt. Tabelle 53: Photodynamische Wirkung einer SolGel Beschichtung gegen verschiedene Bakterienstämme

Like-named read-outs stand apart in the source and are kept apart here.

Consider `CC(C)(O)c1cc[n+](CC2=Cc3cccc4cccc(c34)C2=O)cc1` [S-25a], for which the log reduction at 2000 µM in experiment [1] (Immersion in Incidin Plus (10% in Wasser) 0 h, read-out: Log10 Reduktion nach 0 h, Probe) is 3.7; in experiment [1] (Immersion in Incidin Plus (10% in Wasser) 1 h, dark, read-out: Log10 Reduktion nach 1 h, Dunkelkontrolle), 0.8; in experiment [1] (Immersion in Incidin Plus (10% in Wasser) 1 h, read-out: Log10 Reduktion nach 1 h, Probe), 2.6; in experiment [1] (Immersion in Incidin Plus (10% in Wasser) 2 h, read-out: Log10 Reduktion nach 2 h, Probe), 2.4; in experiment [1] (Immersion in Incidin Plus (10% in Wasser) 3 h, read-out: Log10 Reduktion nach 3 h, Probe), 1.4; in experiment [2] (Acinetobacter baumannii, ATCC15308, A. baumanii ATCC 15308 (Gram negativ), 300 µW/cm2, read-out: Log10 Reduktion Probe), more than 4. Further, the log reduction at 2000 µM in experiment [2] (Acinetobacter baumannii, ATCC15308, A. baumanii ATCC 15308 (Gram negativ), dark, read-out: Log10 Reduktion Dunkelkontrolle) was 0.1; in experiment [2] (Enterococcus faecium, E.faecium EDCC 5271 (Gram positiv), 300 µW/cm2, read-out: Log10 Reduktion Probe), more than 4; in experiment [2] (Enterococcus faecium, E.faecium EDCC 5271 (Gram positiv), dark, read-out: Log10 Reduktion Dunkelkontrolle) it was 0; in experiment [2] (Staphylococcus aureus, ATCC6538, S.aureus ATCC 6538 (Gram positiv), 300 µW/cm2, read-out: Log10 Reduktion Probe), more than 4; in experiment [2] (Staphylococcus aureus, ATCC6538, S.aureus ATCC 6538 (Gram positiv), dark, read-out: Log10 Reduktion Dunkelkontrolle), 0.1.
